This is an account of results in patent US7825156B2, “Method of treating bipolar depression with a benzamide derivative” (Copharms, priority 2007, dated 2010).

In data set [1] the test system is bipolar I disorder relapse. The following applies: add-on treatment of bipolar I patients, cited from earlier work.
A further data set has as its system bipolar depression. The experiment in a line: Case reports: treatment of bipolar depression in patients with bipolar I or II disorder. The following applies: for depressive disorders: amisulpride 150 mg/d.
The next data set concerns bipolar disorder. Briefly: Earlier treatments in the case histories (manic episodes, maintenance, earlier depressive condition). In kind it is in vivo, patient. The following applies: for manic episode, treatment outcome: Case 10, bipolar I, most recent episode mixed, haloperidol and levomepromazine given together.
The nature of data set [2]: Serum levels of concomitant drugs in the case patients.

Protocol for bipolar depression: Bipolar depressive patient is here defined as a patient with either Bipolar I Disorder, Most Recent Episode Depressed; Bipolar I Disorder, Most Recent Episode Mixed or Bipolar II Disorder (Recurrent Major Depressive Episodes With Hypomanic Episodes) (Classification 296.5×, 296.6×, and 296.89 respectively of DSM-IV).
Subject diagnosed with bipolar II disorder, recurrent major depressive episodes with hypomanic episodes). They are admitted for bipolar depression and amisulpride treatment of 200 mg/d is initiated.
Subject diagnosed with bipolar II disorder, recurrent major depressive episodes with hypomanic episodes). They are admitted for bipolar depression and amisulpride treatment of 100 mg/d is initiated.
Subject, diagnosed with bipolar disorder I, most recent episode depressed. Upon admission at the hospital a treatment with amisulpride 100 mg/g was initiated.
Subject diagnosed with bipolar I disorder, most recent episode mixed. The patient is hospitalised for bipolar depression and treatment with amisulpride 150 mg/g initiated.
Subject, diagnosed with bipolar I disorder, most recent episode depressed, for the first time. The patient has been on lithium for about 3 years. They are compliant with their treatment and lithium serum levels remains stable around 0.7-0.9 mEq/L. They are admitted for bipolar depression with lithium serum level were 0.8 mEq/L. The day after they received an amisulpride treatment of 100 mg/d.
Subject, diagnosed with bipolar disorder I, most recent episode depressed, is hospitalized for manic state. Their illness started 4 years ago. The patient suffers bipolar disorder type I. The patient has already shown two manic episodes. At entrance, they received divalproate at a dose of 1250 mg/d. […] The patient was diagnosed with major depression. Then, a treatment with amisulpride (150 mg/d) is established.
Subject diagnosed with bipolar I disorder, most recent episode depressed. Their family informed the therapist of a dramatic decrease of their professional performance since 6 months. The patient is admitted for bipolar depression and amisulpride 250 mg/d is initiated.
Subject diagnosed with bipolar II disorder, recurrent major depressive episodes with hypomanic episodes).
Subject diagnosed with bipolar I disorder, most recent episode depressed. […] A treatment with amisulpride 150 mg/d is then initiated.
Subject diagnosed with bipolar I disorder, most recent episode mixed. […] The patient however refused to follow a long course treatment because they seemed not, according to themself and their family, present severe symptoms.
Subject diagnosed with bipolar I disorder, most recent episode depressed. […] At admission, their lithium serum level was 0.7 mEq/L and their valproate serum level was 100 mg/ml.
Subject diagnosed with bipolar I disorder, most recent episode depressed.
Subject diagnosed with bipolar I disorder, most recent episode depressed. After several manic and depressive episodes the patient seems stabilised with a combination of lithium 1600 mg/d and paroxetine 40 mg/d.
Upon admission at the hospital the lithium serum level are controlled and the treatment with paroxetine is stopped. A treatment with amisulpride 100 mg/d is established.
Protocol for bipolar disorder: At entrance, they received divalproate at a dose of 1250 mg/d. […] The patient was diagnosed with major depression. Then, a treatment with amisulpride (150 mg/d) is established.
A treatment with amisulpride 150 mg/d is then initiated.
At admission, their lithium serum level was 0.7 mEq/L and their valproate serum level was 100 mg/ml.

Regarding `CCN1CCCC1CNC(=O)c1cc(S(=O)(=O)CC)c(N)cc1OC` (stereo not drawn) [amisulpride, 4-amino-N-[(1-ethylpyrrolidin-2-yl)methyl]-5-(ethylsulfonyl)-2-methoxybenzamide], in data set [1] (period of amisulpride therapy, Clin Pract Epidemiol Ment Health 2006, 2:19), the overall relapse rate entry is “statistically significant decrease”. Also, in data set [1] (only manic episodes), the “relapse rate, manic episodes” value is “reached statistical significance”. The depressive state result in the data set with bipolar depression (Case 1, bipolar II, amisulpride 200 mg/d, after 4 weeks) is given as “started to markedly decrease”; with bipolar depression (Case 1, bipolar II, amisulpride 200 mg/d, after 6 weeks) it was “disappeared completely”; with bipolar depression (Case 5, bipolar I, most recent episode depressed, on lithium, amisulpride 100 mg/d, after 3 weeks), “started to vanish progressively”; in the data set on bipolar depression (Case 5, on lithium, amisulpride 100 mg/d, after 6 weeks), “disappeared completely”. Further, the “manic or depressive recurrence” value is reported as “no manic or depressive recurrence” with bipolar depression (Case 1, after 3 years of amisulpride 100 mg/d) and “no manic or depressive recurrence” in the data set on bipolar depression (Case 5, after 3 years of treatment). Further, the depressive condition result in the data set on bipolar depression (Case 2, bipolar II, amisulpride 100 mg/d, after 3 weeks) is on record as “improved”; with bipolar depression (Case 9, amisulpride 150 mg/d after fluoxetine, after 2 weeks) it was “almost disappeared”; in the data set on bipolar depression (Case 11, amisulpride 50 mg/d added, after 15 days) it was “improved”; in the data set with bipolar depression (Case 12, bipolar I, most recent episode depressed, 150 mg of amisulpride, after 4 weeks), “recovery”. For the same compound, the relapse entry in the data set on bipolar depression (Case 2, after 4 years of amisulpride 100 mg/d) is “any relapse has still not occurred”; with bipolar depression (Case 3, after 4 years of amisulpride 50 mg/d) it was “no relapse”; in the data set on bipolar depression (Case 4, after 4 years of amisulpride 150 mg/d) it was “no relapse”; in the data set on bipolar depression (Case 8, amisulpride, after 6 months), “no relapse”; with bipolar depression (Case 10, after 7 months of amisulpride) it was “any relapse has still not occurred”; in the data set with bipolar depression (Case 12, after one year of 50 mg amisulpride) it was “No relapse”. Moreover, the relapse entry in the data set with bipolar depression (Case 13, after two years of 100 mg/d) is recorded as “No relapse”. In addition, the depressive disorder entry with bipolar depression (Case 3, bipolar I, most recent episode depressed, amisulpride 100 mg/g, after 3 weeks) is on record as “significant improvement”; in the data set on bipolar depression (Case 4, bipolar I, most recent episode mixed, amisulpride 150 mg/g, early course) it was “rapidly improved”; in the data set on bipolar depression (Case 4, amisulpride 150 mg/g, after 4 weeks), “disappeared”. Besides, the depressive disorders entry in the data set with bipolar depression (Case 6, major depression after divalproate, early course) is “improved rapidly”; in the data set on bipolar depression (Case 6, after 3 weeks) it was “disappear”. Besides, the anxio-depressive element entry in the data set on bipolar depression (Case 7, bipolar I, most recent episode depressed, amisulpride 250 mg/d, after 3 weeks) is “disappears”. The “recurrent manic or depressive episode” value in the data set on bipolar depression (Case 7, after 2 years of amisulpride 250 mg/d) is recorded as “still not been subject to any recurrent manic or depressive episode”. Also, the “patient's chart” value in the data set on bipolar depression (Case 8, after switching from clomipramine to amisulpride 200 mg/d) was “improved”; with bipolar depression (Case 10, amisulpride 300 mg/d, after only one month) it was “resolved the patient's chart”. In addition, the “relapse of depressive or manic episodes” value with bipolar depression (Case 9, after 3 years, amisulpride 100 mg/d) is recorded as “no relapse of depressive or manic episodes”. For the same compound, in the data set on bipolar depression (Case 11, after 4 years with amisulpride), the “manic or depressive relapses” value is on record as “no manic or depressive relapses”. Further, the clinical course entry with bipolar depression (Case 13, bipolar I, most recent episode depressed, amisulpride 100 mg/d) is “progressive improvement”. Further, the catatonic condition entry in the data set on bipolar depression (Case 13, amisulpride 100 mg/d, after 6 weeks) was “disappearance”. For the same compound, the “patient's state” value with bipolar depression (Case 14, after 3 years of amisulpride 200 mg/d) is recorded as “still remains stable”. Further, the clinical improvement entry in the data set with bipolar depression (Case 14, paroxetine stopped, lithium controlled, amisulpride 100 mg/d, after 3 weeks) is listed as “considerable improvement”. The “effect on bipolar depression” value with bipolar depression (amisulpride about 50 mg/day to about 300 mg/day (about 20 to about 800 mg/day)) was “clinically beneficial effect”.
For `NC(=O)N1c2ccccc2C=Cc2ccccc21` [carbamazepine], the therapeutic outcome in the data set on bipolar disorder (Case 9, carbamazepine 800 mg/d for 5 years) is given as “treated successfully”. In addition, the “serum level of carbamazepine” value in data set [2] (Case 9, carbamazepine 800 mg/d, at admission) came out at 8000 ng/mL.
`CN(C)CCCN1c2ccccc2CCc2ccc(Cl)cc21` [clomipramine]: the “patient's condition (anxiety, agitation, sleep disorders)” value in the data set with bipolar depression (Case 8, bipolar II, clomipramine 100 mg/d, according to their family) is recorded as “deteriorated”.
With `CCCC(CCC)C(=O)O.CCCC(CCC)C(=O)[O-].[Na+]` [divalproate], the manic symptoms entry with bipolar disorder (Case 6, bipolar I, manic state, divalproate 1250 mg/d, after one month) is on record as “disappeared”. Further, in the data set on bipolar depression (Case 11, combination of lithium and divalproate 750 mg/d, lithium increased to obtain 0.9 mEq/L), the depressive condition entry is recorded as “continued”.
For the compound `CNCCC(Oc1ccc(C(F)(F)F)cc1)c1ccccc1` (stereo not drawn) [fluoxetine], the depressive condition entry with bipolar depression (Case 9, fluoxetine 20 mg/d, after 3 weeks) is “only a small improvement”.
Regarding `O=C(CCCN1CCC(O)(c2ccc(Cl)cc2)CC1)c1ccc(F)cc1` [haloperidol], in the data set with bipolar disorder, the “manic episode, treatment outcome” value is given as “treated successfully”.
Same read-out and setting: in the case of `COc1ccc2c(c1)N(C[C@H](C)CN(C)C)c1ccccc1S2` [levomepromazine] it was “treated successfully”.
In the case of `[Li]` [lithium, lithium carbonate (Li2CO3)], the lithium serum level in data set [2] (Case 5, at admission for bipolar depression) came out at 0.8 mEq/L; in data set [2] (Case 11, lithium 1200 mg/d and divalproate 750 mg/d, at admission) it was 0.7 mEq/L. In addition, the lithium serum levels in data set [2] (Case 5, on lithium for about 3 years, stable level) is reported as 0.7-0.9 mEq/L.
Take `Fc1ccc([C@@H]2CCNC[C@H]2COc2ccc3c(c2)OCO3)cc1` [paroxetine]: the “patient's state” value with bipolar disorder (Case 14, bipolar I, combination of lithium 1600 mg/d and paroxetine 40 mg/d) is on record as “stabilised”.
Turning to `CCOc1ccccc1OCC1CNCCO1` (stereo not drawn) [viloxazine], in the data set with bipolar disorder (Case 12, viloxazine during adolescence), the “reactive depressive condition, response” value is recorded as “responded only moderately”.
